The subject of assay [1] is spontaneously hypertensive rats (SHR/Izm). The assay is described as follows: Blood pressure lowering effect in spontaneously hypertensive rats. It counts as in vivo. To be noted: Rattus norvegicus, ip, male SHR/Izm rats, intraperitoneal, measured over time, read-out: lowered the systolic blood pressures by up to, compared with the value before administration. The method, then:
The compound of the present invention was intraperitoneally administered to spontaneously hypertensive rats (SHR/Izm, sex: male, 4 to 6 rats per group) and evaluated for its blood pressure lowering effect. The compounds of Examples 5, 23, 25, 35, 36, 53, 58, 83, 84, 86, 87, and 90 were used as test compounds.
Each test compound was dissolved in saline and diluted to prepare a test compound solution with a predetermined concentration.
The test compound was intraperitoneally administered at a dose of 10 mg/kg to the animals, and their blood pressures and pulse rates were measured over time using Softron Indirect Blood Pressure Meter BP-98A.

For assay [2], the system named is rabbits (New Zealand White). The assay is described as follows: Ocular hypotensive effect in rabbits. Conditions: male New Zealand White rabbits, 0.04 mL eye drop, concentration of 1% (w/v) or lower, maximum ocular hypotensive rate vs vehicle-treated contralateral eye. It counts as in vivo, rabbit. The method, boiled down: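 Male New Zealand White rabbits (3–6 per group) received 0.04 mL compound solution (pH 7.0 phosphate/NaCl vehicle or 2% boric acid) in one eye and vehicle in the other. IOP measured by rebound tonometer before dosing and over time; ocular hypotensive rate taken as treated-eye IOP relative to vehicle-eye IOP.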

Consider six compounds from patent US8883792B2, “Substituted isoquinoline derivative” (D. Western Therapeutics Institute, Inc., priority 2010, dated 2014).

Where a name gives a salt, the structure may show the parent alone.

For the compound `C[C@H](CNCCc1ccc(F)cc1)NS(=O)(=O)c1ccc2cnccc2c1.Cl` [Example 53, (R)—N-{1-(4-fluorophenethylamino)propan-2-yl}isoquinoline-6-sulfonamide hydrochloride], the inhibition in vivo at 10 mg/kg in assay [1] was not below 30%. In addition, the Ocular hypotensive activity entry in assay [2] is listed as “++ (maximum ocular hypotensive rate of 15% or more)”.

Consider `C[C@H](CNC[C@@H](O)c1ccsc1)NS(=O)(=O)c1ccc2cnccc2c1.Cl` [Example 90, N—[(R)-1-{(S)-2-hydroxy-2-(thiophen-3-yl)ethylamino}propan-2-yl]isoquinoline-6-sulfonamide hydrochloride], for which the inhibition in vivo at 10 mg/kg in assay [1] was not above 20%. For the same compound, the Ocular hypotensive activity result in assay [2] is recorded as “++ (maximum ocular hypotensive rate of 15% or more)”.

For the compound `C[C@H](CNC[C@@H](O)c1ccccc1)NS(=O)(=O)c1ccc2cnccc2c1.Cl` [Example 83, N—[(R)-1-{(S)-2-hydroxy-2-phenylethylamino}propan-2-yl]isoquinoline-6-sulfonamide hydrochloride], the inhibition in vivo at 10 mg/kg in assay [1] was not below 30%. For the same compound, the Ocular hypotensive activity result in assay [2] is given as “++ (maximum ocular hypotensive rate of 15% or more)”.

Regarding `C[C@H](CNC[C@H](O)c1ccccc1)NS(=O)(=O)c1ccc2cnccc2c1.Cl` [Example 87, N—[(R)-1-{(R)-2-hydroxy-2-phenylethylamino}propan-2-yl]isoquinoline-6-sulfonamide hydrochloride], in assay [1], the inhibition in vivo at 10 mg/kg was not above 20%. The Ocular hypotensive activity entry in assay [2] is given as “++ (maximum ocular hypotensive rate of 15% or more)”.

For `CCCCNC[C@@H](C)NS(=O)(=O)c1ccc2cnccc2c1` [Example 5, (R)—N-{1-(butylamino)propan-2-yl}isoquinoline-6-sulfonamide dihydrochloride], the inhibition in vivo at 10 mg/kg in assay [1] was not above 16%. In assay [2], the Ocular hypotensive activity entry is “++ (maximum ocular hypotensive rate of 15% or more)”.

Regarding `C[C@H](CNCCc1c[nH]c2ccccc12)NS(=O)(=O)c1ccc2cnccc2c1.Cl` [Example 36, (R)—N-[1-{2-(1H-indol-3-yl)ethylamino}propan-2-yl]isoquinoline-6-sulfonamide hydrochloride], in assay [1], the inhibition in vivo at 10 mg/kg was not below 30%. Moreover, the Ocular hypotensive activity entry in assay [2] is “++ (maximum ocular hypotensive rate of 15% or more)”.
